Assays:
[1] = system: Human immunodeficiency virus 1; test: Inhibition of particle production in de novo infection assay of HIV infected CEM cells.; assay type: functional, organism-based; conditions: Human immunodeficiency virus 1, CCRF-CEM
[2] = molecular target: Human immunodeficiency virus type 1 integrase (Human immunodeficiency virus 1, UniProt Q7ZJM1); test: In vitro inhibition of recombinant integrase activity in a standard 3'-processing assay.
[3] = system: CCRF-CEM; test: Concentration that inhibits 50% of viral particle production in de novo infection assay of CEM cells (ex vivo); Not reached; assay type: functional, cell-based, Homo sapiens

Sequence of Human immunodeficiency virus type 1 integrase (Q7ZJM1 whole entry): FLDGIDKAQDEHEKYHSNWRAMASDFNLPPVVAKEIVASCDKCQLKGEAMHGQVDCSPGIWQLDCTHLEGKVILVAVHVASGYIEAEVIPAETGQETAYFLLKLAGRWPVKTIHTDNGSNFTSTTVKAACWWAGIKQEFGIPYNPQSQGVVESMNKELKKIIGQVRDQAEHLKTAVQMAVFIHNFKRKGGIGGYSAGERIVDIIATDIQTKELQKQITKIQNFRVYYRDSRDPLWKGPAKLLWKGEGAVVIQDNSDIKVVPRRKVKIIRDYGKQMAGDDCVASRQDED

SMILES	IC50 [1] [µM]	IC50 [2] [µM]	IC50 [3]
COc1cc(NC(=O)c2ccc3ccc(C(=O)O)c(O)c3n2)cc(O)c1O	2	6.5	
O=C(NCc1ccc(O)c(O)c1O)c1ccc2ccc(C(=O)O)c(O)c2n1	4	1.5	
O=C(NNc1ccc([N+](=O)[O-])cc1[N+](=O)[O-])c1ccc2ccc(C(=O)O)c(O)c2n1	> 100	3	
COc1cc(CNC(=O)c2ccc3ccc(C(=O)O)c(O)c3n2)cc(O)c1O	25	6.5	
O=C(Nc1ccc2ccc(C(=O)O)c(O)c2n1)c1ccccc1	> 100	> 100	
O=C(NCc1cc(O)cc(O)c1)c1ccc2ccc(C(=O)O)c(O)c2n1	> 100	> 100	
O=C(O)c1ccc2ccc(/C=C/c3ccc(O)c(O)c3)nc2c1O	1		
O=C(/C=C(\O)c1ccccc1)c1ccc2ccc(C(=O)O)c(O)c2n1	> 100	30	
O=C(NCc1ccc(O)cc1O)c1ccc2ccc(C(=O)O)c(O)c2n1	10	5	
O=C(Nc1ccc(O)c(O)c1)c1ccc2ccc(C(=O)O)c(O)c2n1	30	0.9	
O=C(O)c1ccc2ccc(CCc3ccc(O)c(O)c3)nc2c1O			Not reached
O=C(NCc1ccc(O)c(O)c1)c1ccc2ccc(C(=O)O)c(O)c2n1	2	5	
O=C(NCc1cccc(O)c1O)c1ccc2ccc(C(=O)O)c(O)c2n1	40	5	
O=C(NNc1ccccc1)c1ccc2ccc(C(=O)O)c(O)c2n1	45	> 100	
COc1ccc(CNC(=O)Nc2ccc3ccc(C(=O)O)c(O)c3n2)cc1	> 100	> 100	
O=C(Nc1ccc(O)c(O)c1)Nc1ccc2ccc(C(=O)O)c(O)c2n1	> 100	> 100	
O=C(O)c1ccc2ccc(/C=C/c3cc(O)cc(O)c3)nc2c1O	> 100		
O=C(NCc1ccc(O)c(O)c1)Nc1ccc2ccc(C(=O)O)c(O)c2n1	55	> 100	
